The record followed here is patent US20250154472A1, “Culture Medium for Expanding Breast Epithelial Stem Cells” (Koninklijke Nederlandse Akademie Van Wetenschappen, priority 2014, published 2025).

Holding throughout (format): cell-based, human
Experiment [1] has as its system mammary tumor organoid line W859T. The experiment in a line: Low throughput drug screen, cell viability (CellTiter-Glo 2.0), W859T. Particulars: 7 days, 1 nM-30 μM, 96-well. The procedure: (§1) Organoids were photographed every 3-4 days (FIG. 8) and cell viability measured at day 7 using the CellTiter-Glo 2.0 assay (G9241, Promega) (FIG. 9).
(§2) All three organoid lines respond to Iressa at concentrations ˜10 μM indicating a dependence on EGFR signaling. […] Mammary tumor organoids are suitable for cell viability based low throughput drug screens in a 96-well format. We are currently testing the assay in a 384-well plate format which has been successfully established for colon cancer organoids.
On the technique in general: ATP-based viability assays read luminescence as a measure of living cells.

For experiment [2], the system named is mammary tumor organoid line W854T. Kind of experiment: Low throughput drug screen, cell viability (CellTiter-Glo 2.0), W854T. The note with it: 7 days, 1 nM-30 μM, 96-well. How it is done:
as §1, §2

For experiment [3], the system named is mammary tumor organoid line W855T. Kind of experiment: Low throughput drug screen, cell viability (CellTiter-Glo 2.0), W855T. The note with it: 7 days. How it is done: as §1, §2
The test system of experiment [4] is mammary tumor organoid line W854T. The experiment in a line: Organoid growth in medium containing Nutlin-3. The note with it: 5 μM Nutlin-3.

Molecules are shown by their SMILES.

With `COc1cc2ncnc(Nc3ccc(F)c(Cl)c3)c2cc1OCCCN1CCOCC1` [Iressa], the “concentration at which organoids respond (growth/viability)” value is approximately 10 µM in experiment [1]; approximately 10 µM in experiment [2]; approximately 10 µM in experiment [3] (1 nM-30 μM, 96-well).
`COc1ccc(C2=N[C@@H](c3ccc(Cl)cc3)[C@@H](c3ccc(Cl)cc3)N2C(=O)N2CCNC(=O)C2)c(OC(C)C)c1` [Nutlin-3]: the “concentration at which organoids respond (growth/viability)” value in experiment [1] and in experiment [2] was more than 30 µM each time. The “growth in medium containing the p53 stabilizer” value in experiment [4] is “readily grew”. Moreover, the “growth inhibition at concentrations up 30 μM” value in experiment [3] is “perhaps the exception”.
